One test concerns the target Vasopressin V1 receptor (Rattus norvegicus, UniProt P48974+P30560). The test can be described thus: pA2 value was determined for Vasopressin V1 receptor antagonistic activity in vivo in anesthetized rats. In kind it is functional, organism-based.
The subject of a further test is Rattus norvegicus. As to the kind of experiment: pA2 value was determined for antidiuretic V2 antagonistic activity in vivo in anesthetized rats pA2 value was determined for antidiuretic V2 antagonistic activity in vivo in anesthetized rats. The conditions noted are these: Urine, read-out: pA2 (converted). In kind it is functional, organism-based.
The target in test [1] is Vasopressin V1 receptor (Rattus norvegicus) (UniProt P48974+P30560). As to the kind of experiment: Effective dose was determined for Vasopressin V1 receptor antagonistic activity in vivo in anesthetized rats. Type of test: functional, organism-based.
Test [2] concerns the target Vasopressin V2 receptor (Rattus norvegicus) (UniProt Q00788). The test can be described thus: Selectivity ratio of antidiuretic Vasopressin V2 receptor ED /[…] receptor ED. Conditions: Urine.
For test [3] the target is unchanged. As to the kind of experiment: Effective dose was determined for Vasopressin V2 receptor antagonistic activity in vivo in anesthetized rats. Type of test: functional, organism-based.

One may read the pA2 as a measure of antagonist potency on a negative log scale.

Sequence of Vasopressin V2 receptor (Rattus norvegicus) (Q00788 whole entry): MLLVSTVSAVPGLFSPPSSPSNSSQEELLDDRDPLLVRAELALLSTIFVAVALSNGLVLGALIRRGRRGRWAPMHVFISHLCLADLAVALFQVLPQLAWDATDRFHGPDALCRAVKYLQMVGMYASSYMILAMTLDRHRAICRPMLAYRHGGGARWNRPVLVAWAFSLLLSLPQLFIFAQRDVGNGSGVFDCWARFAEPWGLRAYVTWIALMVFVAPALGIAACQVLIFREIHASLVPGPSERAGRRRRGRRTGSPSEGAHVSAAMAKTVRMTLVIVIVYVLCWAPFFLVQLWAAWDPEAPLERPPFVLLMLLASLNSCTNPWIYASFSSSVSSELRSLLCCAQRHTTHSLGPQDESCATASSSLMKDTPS
Sequence of Vasopressin V1 receptor (Rattus norvegicus) (P30560 whole entry, looked up): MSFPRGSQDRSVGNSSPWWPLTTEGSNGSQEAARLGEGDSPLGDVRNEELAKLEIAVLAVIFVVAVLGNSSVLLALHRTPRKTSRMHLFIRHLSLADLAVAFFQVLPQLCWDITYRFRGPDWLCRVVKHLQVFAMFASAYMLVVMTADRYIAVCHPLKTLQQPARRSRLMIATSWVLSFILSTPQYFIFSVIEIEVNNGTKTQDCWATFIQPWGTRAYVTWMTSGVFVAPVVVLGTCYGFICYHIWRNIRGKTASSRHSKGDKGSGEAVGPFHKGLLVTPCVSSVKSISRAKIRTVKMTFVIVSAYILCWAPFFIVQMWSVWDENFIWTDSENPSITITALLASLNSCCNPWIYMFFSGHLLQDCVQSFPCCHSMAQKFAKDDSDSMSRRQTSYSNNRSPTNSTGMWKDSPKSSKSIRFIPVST
Sequence of Vasopressin V1 receptor (Rattus norvegicus) (P48974 whole entry, looked up): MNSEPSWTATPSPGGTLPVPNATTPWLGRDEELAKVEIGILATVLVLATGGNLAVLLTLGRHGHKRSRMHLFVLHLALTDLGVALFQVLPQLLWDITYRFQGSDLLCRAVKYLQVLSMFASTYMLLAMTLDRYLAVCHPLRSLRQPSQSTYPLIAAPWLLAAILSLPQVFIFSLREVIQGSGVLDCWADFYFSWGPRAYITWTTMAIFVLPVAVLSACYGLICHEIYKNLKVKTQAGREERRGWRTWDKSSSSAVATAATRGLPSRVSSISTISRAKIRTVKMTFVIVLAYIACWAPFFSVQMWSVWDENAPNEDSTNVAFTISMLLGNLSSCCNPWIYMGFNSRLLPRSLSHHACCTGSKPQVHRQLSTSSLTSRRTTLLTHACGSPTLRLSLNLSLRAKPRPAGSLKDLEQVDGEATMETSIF

At Vasopressin V1 receptor, `COc1ccc(C[C@@H](NC(=O)Cc2ccccc2)C(=O)N[C@@H](Cc2ccccc2)C(=O)N[C@@H](CCC(N)=O)C(=O)N[C@@H](CC(N)=O)C(=O)N[C@@H](CCCCN)C(=O)N2CCC[C@H]2C(=O)N[C@@H](CCCN=C(N)N)C(N)=O)cc1` registered a pA2 of 8.93. Further, the Kb with Rattus norvegicus is above 316 nM.

Compound `CCOc1ccc(C[C@@H](NC(=O)CC23CC4CC(CC(C4)C2)C3)C(=O)N[C@@H](Cc2ccccc2)C(=O)N[C@H](C(=O)N[C@@H](CC(N)=O)C(=O)N[C@@H](CCCN=C(N)N)C(=O)N2CCC[C@H]2C(=O)N[C@@H](CCCN=C(N)N)C(=O)N[C@@H](CCCN=C(N)N)C(N)=O)C(C)C)cc1` had a pA2 on Vasopressin V1 receptor of 8.13. For the same compound, the Kb with Rattus norvegicus is 10.5 nM.

In the case of `CCOc1ccc(C[C@@H](NC(=O)Cc2ccccc2)C(=O)N[C@@H](Cc2ccccc2)C(=O)N[C@H](C(=O)N[C@@H](CC(N)=O)C(=O)N[C@@H](CCCCN)C(=O)N2CCC[C@H]2C(=O)N[C@@H](CCCN=C(N)N)C(=O)N[C@@H](CCCN=C(N)N)C(N)=O)C(C)C)cc1`, at Vasopressin V1 receptor, the pA2 is given as 8.47. Besides, the Kb in the test on Rattus norvegicus is around 141 nM.

As for `CCOc1ccc(C[C@@H](NC(=O)CC(C)(C)C)C(=O)N[C@@H](Cc2ccccc2)C(=O)N[C@H](C(=O)N[C@@H](CC(N)=O)C(=O)N[C@@H](CCCCN)C(=O)N2CCC[C@H]2C(=O)N[C@@H](CCCN=C(N)N)C(N)=O)C(C)C)cc1`, at Vasopressin V1 receptor, the pA2 is recorded as 8.63. Further, the Kb in the test on Rattus norvegicus was 100 nM.

In turn, `CCOc1ccc(C[C@@H](NC(=O)CC23CC4CC(CC(C4)C2)C3)C(=O)N[C@@H](Cc2ccccc2)C(=O)N[C@H](C(=O)N[C@@H](CC(N)=O)C(=O)N[C@@H](CCCN=C(N)N)C(=O)N2CCC[C@H]2C(=O)N[C@@H](CCCN=C(N)N)C(N)=O)C(C)C)cc1` registered a pA2 on Vasopressin V1 receptor of 8.01. In addition, the Kb with Rattus norvegicus is 18.6 nM.

Regarding `CCOc1ccc(C[C@H]2NC(=O)CC3(CCCCC3)SSC[C@@H](C(=O)N3CCC[C@H]3C(=O)N[C@@H](CCCN=C(N)N)C(N)=O)NC(=O)[C@H](CC(N)=O)NC(=O)[C@H](C(C)C)NC(=O)[C@H](Cc3ccccc3)NC2=O)cc1`, the pA2 on Vasopressin V1 receptor is 8.17. Besides, the Kb in the test with Rattus norvegicus was 20.4 nM.

On to `CCOc1ccc(C[C@@H](NC(=O)CC23CC4CC(CC(C4)C2)C3)C(=O)N[C@@H](Cc2ccccc2)C(=O)N[C@H](C(=O)N[C@@H](CC(N)=O)C(=O)N[C@@H](CCCN=C(N)N)C(=O)N(C)[C@@H](C)C(=O)N[C@@H](CCCN=C(N)N)C(N)=O)C(C)C)cc1`, for which, at Vasopressin V1 receptor, the pA2 amounted to 8.28. Besides, the results for the Effective dose in test [1] and in test [3] were 0.37 nM/kg and 1.2 nM/kg, respectively. The Kb in the test with Rattus norvegicus is 17 nM. In test [2], the Ratio stood at 3.2.

Compound `CCOc1ccc(C[C@@H](NC(=O)CC23CC4CC(CC(C4)C2)C3)C(=O)N[C@@H](Cc2ccccc2)C(=O)N[C@H](C(=O)N[C@@H](CC(N)=O)C(=O)N[C@@H](CCCN)C(=O)N2CCC[C@H]2C(=O)N[C@@H](CCCN=C(N)N)C(=O)N[C@@H](CCCN=C(N)N)C(N)=O)C(C)C)cc1` registered a pA2 at Vasopressin V1 receptor of 7.64. The Kb with Rattus norvegicus is around 12.6 nM.

On Vasopressin V1 receptor, `CCOc1ccc(C[C@@H](NC(=O)CC23CC4CC(CC(C4)C2)C3)C(=O)N[C@@H](Cc2ccccc2)C(=O)N[C@H](C(=O)N[C@@H](CC(N)=O)C(=O)N[C@@H](CCCN)C(=O)N2CCC[C@H]2C(=O)N[C@@H](CCCN=C(N)N)C(N)=O)C(C)C)cc1` came in with a pA2 of 7.33. Moreover, the Kb in the test with Rattus norvegicus is 15.5 nM.

These data come from ChEMBL document CHEMBL1125129, “Design of potent and selective linear antagonists of vasopressor (V1-receptor) responses to vasopressin” (J Med Chem, 1990).
